Assay results as given in the NIST ThermoML archive (doi:10.1021/je9005689).
Numbers after ± are expanded uncertainties.

Assays:
[1] = Molar enthalpy of transition or fusion; details: Crystal; DSC
[2] = Crystal; DTA

COc1cnc(Cl)nc1Cl [2,4-dichloro-5-methoxypyrimidine]
Molar enthalpy of transition or fusion [1]: 4.22 ± 0.1 kcal/mol | Normal melting temperature [2]: 69.00 ± 0.5 °C
